Laboratory results published in US20050013914A1, “Method of sustaining aroma and use thereof” (priority 2001, published 2005).
Like-named read-outs stand apart in the source and are kept apart here.

How the values were obtained:
Assay type in all cases: physicochemical
[1] = Adsorption of aromatic substances on CTS crystalline anhydrate (Example C-3)
Experimental: The following explains the experimental method in detail. […] The amount of the adsorbed aromatic substances was calculated by measuring the weight of the resulting powders and subtracting their starting powder weight (4 g).

[2] = Adsorption of liquid ethanol or acetic acid on saccharide powder (Example C-1); details: until mixture did not keep a powder form; for Amount of Adsorbed Acetic Acid: acetic acid adsorbed on 1 g of saccharide; for Amount of Adsorbed Ethanol: ethanol adsorbed on 1 g of saccharide
Text: CTS crystalline pentahydrate, prepared by the method described in Example B-3, CTS crystalline monohydrate, prepared by the method described in Example B-4, CTS crystalline anhydrate, prepared by the method described in Example B-5, or CTS amorphous anhydrate prepared by the method described in Example B-6, was used for preparation of aroma-retaining material. “ISOELEAT P™”, a branched cyclodextrin commercialized by Maruha corporation, Tokyo, Japan, anhydrous trehalose prepared by the method described in Japanese Patent Kokai No. 111,284/97, “PINEFIBRE™”, a dextrin commercialized by Matsutani Chemical Industries Co., Ltd., Tokyo, Japan, or soluble starch in a reagent grade commercialized by Katayama Chemical Industries, Co., Ltd., Tokyo, Japan, was dried in vacuo at 80° C. for 16 hours as control saccharides. […] The resulting mixture was weighed. The weight of ethanol or acetic acid was calculated by subtracting the pre-measured saccharide weight. The weight of ethanol or acetic acid adsorbed on 1 g of each saccharide was in Table 1.

[3] = Adsorption and 10-day retention of lavender oil, citronellol or phenethyl alcohol on saccharides (Example C-4); details: for Amount of the Adsorbed Substance: freshly prepared sample; for Relative Amount of the Retained Substance: preserved at 25° C. for 10 days vs freshly prepared
Text: The following example is a test to confirm the effect of CTS crystalline hydrate, CTS crystalline anhydrate, or CTS amorphous anhydrate on retaining, as an aromatic substance, lavender oil, citronellol, or phenethyl alcohol. CTS crystalline pentahydrate prepared by the method described in Example B-3, CTS crystalline anhydrate in Example B-5, and CTS amorphous anhydrate in Example B-6 were used as the test saccharides “ISOELEAT P®”, a branched cyclodextrin commercialized by Maruha Corporation, Tokyo, Japan, was used as a control.
In the case of lavender oil, five parts by weight of each of the above saccharides were taken into a glass dish sized 90 mm in diameter and 20 mm in depth, admixed with one part by weight of lavender oil by stirring. Lavender oil was measured by the method described as follows; admixing 2 ml of diethyl ether with 1 g of each of the above samples freshly prepared or after preserved at 25° C. for 10 days; measuring the extracted lavender oil by gas chromatography using “GC-14B” (a gas chromatography commercialized by Shimazu corporation, Kyoto, Japan) equipped with “TC-Wax” (a capillary column sized 0.53 mm in diameter and 25 m in length commercialized by GL Sciences Inc., Tokyo, Japan.
In the case of citronellol or phenethyl alcohol, five parts by weight of each of the above saccharides were taken into a glass dish sized 90 mm in diameter and 20 mm in depth, admixed with one part by weight of citronellol or phenethyl alcohol, and mixed by stirring. The adsorbed citronellol or phenethyl alcohol was measured by admixing 2 ml of diethyl ether with 1 g of each of the above sample freshly prepared or after preserved at 25° C. for 10 days, and measuring the extracted lavender oil by gas chromatography using “GC-14B” (a gas chromatography device commercialized by Shimazu corporation, Kyoto, Japan) equipped with “DB-5” (a capillary column sized 0.25 mm in diameter and 30 m in length commercialized by GL Sciences Inc., Tokyo, Japan).
The amount of the retained aromatic substance in each sample was calculated using the following formula, and the results were shown in Table 4.
Formula: Relative amount of the retained Substance (%)={(an amount of aromatic substance in a sample preserved for 10 days)/(an amount of aromatic substance in a freshly prepared sample)}×100

[4] = aromatic substance adsorbed per 1 g of CTS crystalline anhydrate
[5] = citronellol, listed as Sample 1
[6] = lavender oil, listed as Sample 1
[7] = phenethyl alcohol, listed as Sample 1
[8] = citronellol, listed as Sample 3
[9] = lavender oil, listed as Sample 3
[10] = phenethyl alcohol, listed as Sample 3

Row | Compound | Amount of Adsorbed Substance [1, 4] | other results
1 | CCOCC [Diethyl Ether] |  | Amount of Adsorbed Substance [1]: 0.17 g
2 | CO [Methanol] |  | Amount of Adsorbed Substance [1]: 0.61 g
3 | C=CC(C)(O)CCC=C(C)C (centres unmarked) [Linalool] | 0.42 g | 
4 | C=CCN=C=S [Allylisothiocyanate] | 0.37 g | 
5 | CC(C)=CCCC(C)CCO (centres unmarked) [Citronellol] | 0.39 g | 
6 | CC(C)(C)O [2-Methyl-2-Propanol] |  | Amount of Adsorbed Substance [1]: 0.32 g
7 | CC1=CCC2CC1C2(C)C (stereo not drawn) [α-Pinene] | 0.35 g | 
8 | OCC1OC2OCC3O[C@H](O[C@H]4C(O)C(CO)OC(OCC5O[C@H](O[C@@H](C1O)C2O)C(O)C(O)[C@@H]5O)C4O)C(O)C(O)[C@@H]3O (some centres unmarked) [CTS crystalline pentahydrate] |  | Amount of Adsorbed Acetic Acid [2]: 0.27 g; Amount of Adsorbed Ethanol [2]: 0.32 g; Amount of the Adsorbed Substance ([3]; citronellol, listed as CTS crystalline hydrate): 155 mg/g saccharide; Amount of the Adsorbed Substance [3, 5]: 155 mg/g saccharide; Relative Amount of the Retained Substance [3, 5]: 30%; Amount of the Adsorbed Substance ([3]; lavender oil, listed as CTS crystalline hydrate): 150 mg/g saccharide; Amount of the Adsorbed Substance [3, 6]: 150 mg/g saccharide; Relative Amount of the Retained Substance [3, 6]: 1%; Amount of the Adsorbed Substance ([3]; phenethyl alcohol, listed as CTS crystalline hydrate): 140 mg/g saccharide; Amount of the Adsorbed Substance [3, 7]: 140 mg/g saccharide; Relative Amount of the Retained Substance [3, 7]: 3%
9 | CC1=CC=C(C(C)C)CC1 [α-Terpinene] | 0.37 g | 
10 | CC(C)O [2-Propanol] | 0.48 g | 
11 | CC(C)=CCC/C(C)=C/CO [Geraniol] | 0.32 g | 
12 | OCCCCO [1,4-Butanediol] |  | Amount of Adsorbed Substance [1]: 0.28 g
13 | ClC(Cl)Cl [Chloroform] |  | Amount of Adsorbed Substance [1]: 0.32 g
14 | C=C(C)[C@H]1CC=C(C)CC1 [Limonene] | 0.42 g | 
15 | COc1ccccc1O [o-Methoxyphenol] | 0.42 g | 
16 | OCCc1ccccc1 [Phenethyl Alcohol] | 0.40 g | 
17 | CCCCCO [1-Pentanol] | 0.31 g | 
18 | CCCCCCCC(=O)O [Octanic Acid] | 0.47 g | 
19 | OCCCc1ccccc1 [3-Phenyl-1-Propanol] | 0.52 g | 
20 | CC(=O)CC(C)(C)O [Diacetone Alcohol] | 0.28 g | 
21 | CCCCC(=O)O [Valeric Acid] | 0.47 g | 
22 | CCCCCOC(C)=O [Pentylacetate] | 0.46 g | 
23 | CC(C)c1cccc(=O)c(O)c1 [Hinokithiol] | 0.29 g | 
24 | CC1=CCC(O)(C(C)C)CC1 (centres unmarked) [Terpinen-4-ol] | 0.34 g | 

Row | Compound | Amount of Adsorbed Substance [1, 4] | other results
25 | Bornylacetate | 0.48 g | 
26 | CC(C)CO [2-Methyl-1-Propanol] | 0.36 g | 
27 | CC(C)(C)N=C=S [t-Butylisothiocyanate] | 0.36 g | 
28 | Cc1ccccc1 [Toluene] |  | Amount of Adsorbed Substance [1]: 0.29 g
29 | ClCc1ccccc1 [Benzyl Chloride] | 0.32 g | 
30 | OCc1ccccc1 [Benzyl Alcohol] | 0.43 g | 
31 | C=C1CCC2CC1C2(C)C (stereo not drawn) [β-Pinene] | 0.30 g | 
32 | CC(C)=CCCC(C)CC=O (centres unmarked) [Citronellal] | 0.46 g | 
33 | OCC1OC2OCC3O[C@H](O[C@H]4C(O)C(CO)OC(OCC5O[C@H](O[C@@H](C1O)C2O)C(O)C(O)[C@@H]5O)C4O)C(O)C(O)[C@@H]3O (some centres unmarked) [CTS crystalline monohydrate] |  | Amount of Adsorbed Acetic Acid [2]: 0.35 g; Amount of Adsorbed Ethanol [2]: 0.45 g
34 | 3-Methyl-1-Propanol | 0.36 g | 
35 | CCC(=O)O [Propionic Acid] | 0.50 g | 
36 | 1-Propanol | 0.46 g | 
37 | O=CO [Formic Acid] |  | Amount of Adsorbed Substance [1]: 0.24 g
38 | CCCCCC(=O)O [Capronic Acid] | 0.47 g | 
39 | c1ccccc1 [Benzene] | 0.14 g | 
40 | OCC1OC2OCC3O[C@H](O[C@H]4C(O)C(CO)OC(OCC5O[C@H](O[C@@H](C1O)C2O)C(O)C(O)[C@@H]5O)C4O)C(O)C(O)[C@@H]3O (some centres unmarked) [CTS amorphous anhydrate] |  | Amount of Adsorbed Acetic Acid [2]: 0.47 g; Amount of Adsorbed Ethanol [2]: 0.49 g; Adsorbing capability relative to branched cyclodextrin ([3]; citronellol): about 1.2 fold; Amount of the Adsorbed Substance ([3]; citronellol): 190 mg/g saccharide; Amount of the Adsorbed Substance [3, 8]: 190 mg/g saccharide; Relative Amount of the Retained Substance [3, 8]: 40%; Adsorbing capacity relative to branched cyclodextrin ([3]; lavender oil): about 1.3 fold; Amount of the Adsorbed Substance ([3]; lavender oil, listed as CTS amorphous anhydrte): 185 mg/g saccharide; Amount of the Adsorbed Substance [3, 9]: 185 mg/g saccharide; Relative Amount of the Retained Substance [3, 9]: 8%; Amount of the Adsorbed Substance ([3]; phenethyl alcohol): 180 mg/g saccharide; Amount of the Adsorbed Substance [3, 10]: 180 mg/g saccharide; Relative Amount of the Retained Substance [3, 10]: 12%
41 | CC(C)C(=O)O [Isobutyric Acid] | 0.51 g | 
42 | CCO [Ethanol] | 0.50 g | 
43 | CC1=CCC(C(C)(C)O)CC1 (stereo not drawn) [α-Terpineol] | 0.33 g | 
44 | CCCC(=O)O [Butyric Acid] | 0.55 g | 
45 | CCCCCCO [1-Hexanol] | 0.41 g | 
46 | CC(=O)O [Acetic Acid] | 0.47 g | 
47 | CCCCCCCCO [1-Octanol] | 0.28 g | 
48 | NCCO [2-Aminoethanol] | 0.13 g | 
